# Tests used:
# [1] = test system: lipoxygenase; conditions: known inhibitors; cited from earlier work
# [2] = test system: cyclooxygenase; conditions: known inhibitors; cited from earlier work
# [3] = test system: lipoxygenase; assay: Inhibition of leukotriene formation (LTC4, LTD4, LTE4 in pleural exudate, HPLC) in A23187-induced pleurisy, oral administration; assay type: in vivo, rats (Wistar-strain, male); conditions: rat pleural exudate, 3 mg/kg p.o., 60 minutes before intrapleural A23187
# Experimental: (1) Preparation of A23187 -induced pleurisy
# Under ether anaesthesia, 0.2 ml of 100,μM […] (prepared by adding injectable distilled water in a 2mM A23187 ethanol solution) was administered intrapleurally to rats (Wistar-strain, male, 11 weeks old). Twenty minutes after the administration, the rats were exsanguinated and the pleural exudate was harvested. The test compound was suspended or dissolved in a 0.5% carboxymethyl cellulose solution containing 2% Tween, and orally administered to the animals 60 minutes before the intrapleural administration of A23187.
# (2) Measurement of the leukotrienes [LTC4, LTD4 and LTE4 ]
# To the exudate obtained in (1) was added 4 times its volume of ice-cooled ethanol. They were well mixed, and then centrifuged. The supernatant was concentrated under reduced pressure, and 1.0 ml of 0.01M acetate buffer (pH 5.9) was added to the residue. The solution was added to SEP-PAK® (C18) and leukotrienes were partially purified. Fractions eluted with 5 ml of 60% ethanol/0.01M acetate buffer (pH 5.9) were collected, and the solvent was evaporated under reduced pressure.
# The residue was dissolved in 1 ml of methanol, and the solution was filtered on a filter having a pore size of 0.45 microns, and evaporated under reduced pressure. The residue was dissolved in the mobile phase (acetonitrile/water/acetic acid/triethylamine, 35/63.5/1.5/2.2) used in high performance liquid chromatography (HPLC) and subjected to analysis by HPLC. A calibration curve was obtained by a fixed amount of PGB2 as an internal standard substance and standard LTC4, LTD4 and LTE4 were added to a buffer, followed by the same extraction, partial purification and HPLC analysis as above. The amounts of the leukotrienes in the sample were calculated from the calibration curve.
# The activity of 2-(4-hydroxy-3,5-dimethylphenyl)-5-methoxy-3-methylindole (compound A) which is disclosed in Example 1 of U.S. Pat. No. 4,695,381 and was selected as an active control is also shown below.
Structure (SMILES),lipoxygenase inhibition [1],cyclooxygenase inhibition (lack of specificity) [2],percent inhibition of LTC4 + LTD4 + LTE4 [3] [%],"LTC4 + LTD4 + LTE4 ([3]; mean ± S.E.M., vehicle 414.82 ± 49.81 ng) [ng]"
"CCCCCC#CCC#CCC#CCC#CCCCC(=O)O [5,8,11,14-eicosatetraynoic acid]",inhibit not only lipoxygenase,lack specificity and inhibit not only lipoxygenase but also cyclooxygenase,,
"NC1=NN(c2cccc(C(F)(F)F)c2)CC1 [BW755C, 3-amino-1-(3-trifluoromethylphenyl)-2-pyrazoline]",inhibit not only lipoxygenase,lack specificity and inhibit not only lipoxygenase but also cyclooxygenase,,
"COc1ccc2[nH]c(-c3cc(C)c(O)c(C)c3)c(C)c2c1 [Compound A, 2-(4-hydroxy-3,5-dimethylphenyl)-5-methoxy-3-methylindole]",,,32.0,
COc1ccc2[nH]c(-c3cc(C)c(OC(=O)CCC(=O)O)c(C)c3)c(C)c2c1 [Example 1],,,53.4,193.30 ± 28.37
